Active and inactive are the calls of the source. No cut-off for these calls is given here.
Columns and labels:
[1] = Inhibition of alternative complement pathway activation by complement modulation test
[2] = Inhibition of classical complement pathway activation by complement modulation test
[3] = Inhibition of classical complement pathway activation at 6.6 uM assessed as complement modulation test
[4] = Inhibition of classical complement pathway activation at 4 uM in presence of beta glucosidase by complement modulation test
[5] = Inhibition of classical complement pathway activation at 4 uM assessed as complement modulation test

With COC(=O)C1=CO[C@H](O[C@@H]2O[C@H](COC(C)=O)[C@@H](O)[C@H](O)[C@H]2O)[C@H]2[C@@H]1C=C[C@@]21C=C(C(O)c2ccc(O)cc2)C(=O)O1 (stereo partly specified) [ACETYLGAERTNEROSIDE] the Activity [1] was “inactive” and the IC50 [2] was 71 µM.
In the case of COC(=O)C1=CO[C@@H](O)[C@@H]2C(CO)=CC[C@H]12, the inhibition [3] is reported as 75.3%.
In the case of COC(=O)C1=CO[C@H](O[C@@H]2O[C@H](CO)[C@@H](O)[C@H](O)[C@H]2O)[C@H]2[C@@H]1[C@@H]1O[C@@H]1[C@@]21C=C(C(O)c2ccc(O)c(OC)c2)C(=O)O1 (stereo partly specified), the Activity [1] is reported as “inactive”.
O=C(O)C1=CO[C@@H](O[C@@H]2O[C@H](CO)[C@@H](O)[C@H](O)[C@H]2O)[C@@H]2C(CO)=CC[C@H]12 showed an inhibition [4] of 87.3% and an inhibition [5] of 14.3%.
For COC(=O)C1=CO[C@H](O[C@@H]2O[C@H](CO)[C@@H](O)[C@H](O)[C@H]2O)[C@H]2[C@@H]1C=C[C@@]21C=C(C(O)c2ccc(O)c(OC)c2)C(=O)O1 (stereo partly specified) [METHOXYGAERTNEROSIDE], the Activity [1] was “inactive” and the IC50 [2] was > 1000 µM.
With COC(=O)C1=CO[C@@H](O[C@@H]2O[C@H](CO)[C@@H](O)[C@H](O)[C@H]2O)[C@H]2[C@@H]1C=C[C@@]21C=C(C(=O)c2ccc(O)c(OC)c2)C(=O)O1 [DEHYDROMETHOXYGAERTNEROSIDE] the Activity [1] was “inactive” and the IC50 [2] was > 400 µM.
In the case of O=C(O)C1=CO[C@H](O[C@@H]2O[C@H](CO)[C@@H](O)[C@H](O)[C@H]2O)[C@H]2[C@@H]1C=C[C@@]21C=C(C(O)c2ccc(O)cc2)C(=O)O1 (stereo partly specified) [GAERTNERIC ACID], the Activity [1] is reported as “inactive” and the IC50 [2] is reported as 69 µM.
For COC(=O)C1=CO[C@H](O[C@@H]2O[C@H](CO)[C@@H](O)[C@H](O)[C@H]2O)[C@H]2[C@@H]1C=C[C@@]21C=C(C(O)c2ccc(O)cc2)C(=O)O1 (stereo partly specified) [GAERTNEROSIDE], the Activity [1] was “inactive” and the IC50 [2] was 58 µM.
In the case of OCC1=C[C@@H](O)[C@@H]2C=CO[C@@H](O[C@@H]3O[C@H](CO)[C@@H](O)[C@H](O)[C@H]3O)[C@H]12, the inhibition [4] is reported as 89.3% and the inhibition [5] is reported as 21.7%.
COC(=O)C1=CO[C@@H](O[C@@H]2O[C@H](CO)[C@@H](O)[C@H](O)[C@H]2O)[C@@H]2C(CO)=CC[C@H]12 showed an inhibition [5] of 23%.
For COC(=O)C1=CO[C@H](O[C@@H]2O[C@H](CO)[C@@H](O)[C@H](O)[C@H]2O)[C@H]2[C@@H]1[C@@H]1O[C@@H]1[C@@]21C=C(C(O)c2ccc(O)cc2)C(=O)O1 (stereo partly specified) [EPOXYGAERTNEROSIDE], the Activity [1] was “inactive” and the IC50 [2] was > 1000 µM.
In the case of COC(=O)C1=CO[C@H](O[C@@H]2O[C@H](CO)[C@@H](O)[C@H](O)[C@H]2O)[C@H]2[C@@H]1C=C[C@@]21C=C(C(=O)c2ccc(O)cc2)C(=O)O1 [DEHYDROGAERTNEROSIDE], the Activity [1] is reported as “inactive” and the IC50 [2] is reported as > 400 µM.

Source: ChEMBL document CHEMBL1158890, “Complement-inhibiting iridoids from Morinda morindoides” (J Nat Prod, 2003)
